Results on two molecules are retold here after US9072778B2, “Treatment regimen for N-MYC, c-MYC, and L-MYC amplified and overexpressed tumors” (UNIVERSITY OF HAWAII, priority 2005, dated 2015).

The structures appear in SMILES notation.

The test system of assay [1] is LAN-1 cells. Nature of the assay: Cell cycle phase distribution (propidium iodide), LAN-1. As to conditions: DFMO = 5 mM, SAM486A = 10 μM, Spd = 10 μM, mean ± SD. Format: cell-based, human. The text has this:
This profile, which is typical for cell cycle arrest at G1, was enhanced by the combination of both inhibitors, with the majority of cells in G1 (˜71-73%), a reduced number of cells in S phase (˜20-28%), and a small portion in G2/M (˜2-7%).
(§1) Human NB cell lines were provided by Dr. Robert Seeger (LAN-1; University of California, Los Angeles, Calif.), Dr. Nai-Kong Cheung (NMB-7; Memorial Sloan-Kettering Cancer Center, NY), and the American Type Culture Collection (SK-N-SH; ATCC, Manassas, Va.). Cells were maintained in RPMI 1640 (Biosource, Rockeville, Md.) containing 10% heat-inactivated fetal bovine serum (FBS) (Invitrogen, Carlsbad, Calif.), penicillin (100 IU/ml) and streptomycin (100 μg/ml). If cells were treated with exogenous Spd, 1 mM of aminoguanidine was included as an inhibitor of serum polyamine oxidation. […] For growth and proliferation inhibition, polyamine pool, and cell cycle studies, 10 μM Spd was added together with inhibitors, and cells were assayed on days 2 and/or 3.

Assay [2] deals with T1, ODC (Homo sapiens, UniProt P11926).
T1 construct: enzyme activities were measured in cell lysates; endogenous in cells
T1 sequence (P11926 1-461): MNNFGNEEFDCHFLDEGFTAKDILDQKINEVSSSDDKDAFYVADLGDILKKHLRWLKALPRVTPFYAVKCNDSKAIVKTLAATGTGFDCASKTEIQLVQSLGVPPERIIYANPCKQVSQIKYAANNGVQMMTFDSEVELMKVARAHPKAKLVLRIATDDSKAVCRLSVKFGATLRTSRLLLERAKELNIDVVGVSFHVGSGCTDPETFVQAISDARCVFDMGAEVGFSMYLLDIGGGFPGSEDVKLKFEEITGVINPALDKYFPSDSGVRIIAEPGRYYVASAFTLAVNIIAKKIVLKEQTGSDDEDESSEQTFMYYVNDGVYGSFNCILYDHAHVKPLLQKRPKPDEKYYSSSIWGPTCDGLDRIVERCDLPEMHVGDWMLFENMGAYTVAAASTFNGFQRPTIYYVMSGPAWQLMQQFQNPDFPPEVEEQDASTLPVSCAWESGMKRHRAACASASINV
Briefly: ODC activity after preincubation of cell extracts with DFMO. It counts as biochemical. As to conditions: extracts from untreated or DFMO-treated LAN-1 cells, 100 μM DFMO, 30 min at 37° C.
Protocol: ODC and AdoMetDC enzyme activities were determined using a standard assay known in the art. In brief, NB cells were washed twice with ice-cold PBS and harvested in 50 mM sodium phosphate buffer (pH 7.2), 0.1 mM EDTA, 2.5 mM DTT, supplemented with 1× protease inhibitor cocktail (Roche Molecular Biochemicals, Indianapolis, Ind.). […] Cells were lysed by three freeze/thaw cycles and cell lysates were prepared by centrifugation for 20 minutes at 14,000 rpm and 4° C. ODC activity was measured in a reaction mixture that contained 20 μM L-[1-^14C]ornithine (47.70 mCi/mmol; NEN Life Science Products, Boston, Mass.).

Assay [3] concerns human ovarian cancer cells (SKOV-3). Nature of the assay: Growth, proliferation and morphology of ovarian cancer cells. It counts as cell-based. As to conditions: DFMO or SAM486A. The text has this:
(Bachmann, A S, (2004) Hawaii Med. Journal, 63:371-373, which is incorporated herein by reference in its entirety). […] Micrographs were taken using an inverted phase contrast microscope (Nikon). In comparison with the ovarian cancer cells SKOV-3, the growth and proliferation of NB cells LAN-1 was inhibited much more drastically and caused significant morphological changes after only 3 days of treatment.
Similar effects were already apparent after 1-2 days (not shown). By comparison, the treatment of human melanoma cells (MALME-3) with polyamine inhibitors required more extensive incubation times (8-12 days) and led to less obvious rearrangements in cell structures (Kramer et al., (2001). Cancer Res, 61, 7754-62, which is incorporate herein by reference in its entirety).

In assay [4] the test system is LAN-1 cells. Briefly: Cell growth and proliferation (cell number) and morphology, LAN-1. Format: cell-based, human. The following applies: LAN-1, 3 days; 5 mM DFMO, 10 μM SAM486A. Here is the method:
(§2) Cell numbers are expressed as percentage (%) of control cell growth and proliferation. Each sample was measured in duplicate and the data represent the mean of three separate determinations±SD. The observed growth and proliferation inhibition of LAN-1 and NMB-7 cells was accompanied by dramatic alterations in cell morphology (FIG. 4b). […] On day 3, both untreated and treated cells were washed free of inhibitor by washing twice with PBS, reseeded in new medium (NM) (solid black arrow) without inhibitors at the starting cell density (dashed black arrow) and the experiment was continued for an additional 7 days. While the untreated LAN-1 and NMB-7 cells grew normally and reached similar cell densities after an additional 3 days (day 6 of the experiment), the initially treated LAN-1 and NMB-7 cells resumed proliferation only slowly and reached about 30% and 58% of control cell growth and proliferation, respectively, on day 10 of the experiment (FIG. 6). Cell numbers were determined using a hemocytometer and trypan blue reagent, and each data point is representative of three separate determinations±SD. […] (not shown). Human NB cell lines were provided by Dr. Robert Seeger (LAN-1; University of California, Los Angeles, Calif.), Dr. Nai-Kong Cheung (NMB-7; Memorial Sloan-Kettering Cancer Center, NY), and the American Type Culture Collection (SK-N-SH; ATCC, Manassas, Va.). […]

The next assay deals with NMB-7 cells. Nature of the assay: Cell growth and proliferation (cell number) and morphology, NMB-7. It counts as cell-based, human. As to conditions: NMB-7, 3 days; 5 mM DFMO, 10 μM SAM486A. The protocol: as §2
Assay [5] has as its target T1, ODC. Briefly: ODC enzyme activity in lysates of inhibitor-treated NB cells. It counts as cell-based. As to conditions: DFMO = 5 mM, SAM486A = 10 μM, mean ± SD. Here is the method:
as §1
ODC and AdoMetDC enzyme activities were determined using a standard assay known in the art. In brief, NB cells were washed twice with ice-cold PBS and harvested in 50 mM sodium phosphate buffer (pH 7.2), 0.1 mM EDTA, 2.5 mM DTT, supplemented with 1× protease inhibitor cocktail (Roche Molecular Biochemicals, Indianapolis, Ind.). For the measurement of AdoMetDC activity, cells were harvested in the above buffer supplemented with 2.5 mM Put. Cells were lysed by three freeze/thaw cycles and cell lysates were prepared by centrifugation for 20 minutes at 14,000 rpm and 4° C. ODC activity was measured in a reaction mixture that contained 20 μM L-[1-^14C]ornithine (47.70 mCi/mmol; NEN Life Science Products, Boston, Mass.). AdoMetDC activity was assayed in a reaction mixture that contained 8.2 μM S-adenosyl-L-[carboxy-^14C]methionine (58.0-61.0 mCi/mmol; Amersham Biosciences, Piscataway, N.J.) and 140.1 μM cold S-adenosylmethionine. […] Untreated or SAM486A-treated LAN-1 extracts were assayed for AdoMetDC activity after multiple rounds of sequential dilution with harvest buffer followed by concentration of the extract (Centricon YM-10, Millipore Corporation, Bedford, Mass.) to remove the inhibitor.

Regarding `NCCC[C@](N)(C(=O)O)C(F)F` [DFMO, α-difluoromethylornithine], the “Cell cycle G1” value is recorded as 62.1 ± 10.4 % TOTAL CELLS with LAN-1 cells [1] (LAN-1, day 2) and 63.1 ± 12.2 % TOTAL CELLS in the assay on LAN-1 cells [1] (LAN-1, day 3). Moreover, the “Cell cycle G2/M” value in the assay on LAN-1 cells [1] (LAN-1, day 2) turned out to be 11.5 ± 3.0 % TOTAL CELLS; with LAN-1 cells [1] (LAN-1, day 3) it was 6.2 ± 4.1 % TOTAL CELLS. Moreover, the “Cell cycle S” value amounted to 26.4 ± 7.5 % TOTAL CELLS with LAN-1 cells [1] (LAN-1, day 2) and 30.8 ± 8.2 % TOTAL CELLS in the assay on LAN-1 cells [1] (LAN-1, day 3). The “ODC activity after preincubation of extracts” value on ODC [2] is given as “complete loss of ODC activity”. The cell morphology entry in assay [3] is reported as “no visible changes in cell morphology”. The “cell morphology (FIG. 4b)” value with LAN-1 cells [4] was “changed into spindle-like cells with neurite-like extensions”; with NMB-7 cells it was “formed large polynucleate cell aggregates with only very short extensions”. For the same molecule, the “Specific enzyme activity ODC” value is recorded as 26 ± 2 % OF CONTROL on ODC [5] (LAN-1, 2 days after treatment) and 25 ± 8 % OF CONTROL on ODC [5] (NMB-7, 2 days after treatment).
Consider `N=C(N)c1cccc2c1CC/C2=N\N=C(N)N` [SAM486A, 4-amidinoindan-1-one 2′-amidinohydrazone], for which the “Cell cycle G1” value with LAN-1 cells [1] (LAN-1, day 2) was 58.7 ± 8.3 % TOTAL CELLS; with LAN-1 cells [1] (LAN-1, day 3) it was 53.3 ± 5.1 % TOTAL CELLS. The “Cell cycle G2/M” value with LAN-1 cells [1] (LAN-1, day 2) is reported as 9.6 ± 3.2 % TOTAL CELLS; with LAN-1 cells [1] (LAN-1, day 3), 9.3 ± 2.0 % TOTAL CELLS. Besides, the “Cell cycle S” value was found to be 31.7 ± 6.8 % TOTAL CELLS with LAN-1 cells [1] (LAN-1, day 2) and 37.4 ± 3.5 % TOTAL CELLS in the assay with LAN-1 cells [1] (LAN-1, day 3). Besides, the cell morphology result in assay [3] is “no visible changes in cell morphology”. In addition, the “Specific enzyme activity ODC” value at ODC [5] (LAN-1, 2 days after treatment) is 240 ± 27 % OF CONTROL; on ODC [5] (NMB-7, 2 days after treatment), 251 ± 42 % OF CONTROL.
